From patent publication US8653054B2, “2-(N-substituted piperazinyl) steroid derivatives” (Universite Laval, priority 2008, dated 2014)
Like-named read-outs stand apart in the source and are kept apart here.

Key:
[1] = Plasmatic concentration (AUC) of aminosteroids after a single subcutaneous injection in rat; conditions: 2.3 mg/kg; for AUC (0-3 h) / AUC (0-12 h): Table 6, subcutaneous one time; for AUC (7 h) / AUC (24 h) / AUC(12 h): Table 5, subcutaneous one time
Method: (§1) Animals: Six to seven week-old male Sprague-Dawley rats (Crl:CD®(SD)Br VAF/Plus™) weighing approximately 220 g were obtained from Charles-River, Inc (St-Constant, Qc., Canada). The animals were acclimatized to environmental conditions (temperature: 22±3° C.; humidity: 50±20%; 12-h light/12-h dark cycles, lights on at 07:15 h) for at least 5 days before starting the experiment. The animals were housed three per cage and were allowed free access to water and a certified commercial rodent food (Rodent Diet #T.2018.15, Harlan Teklad, Madison, Wis., U.S.A.) and were randomized according to their body weight.
(§2) Assay: A pharmacokinetic study was carried out following one subcutaneous (s.c.) injection of the aminosteroids at one concentration (2.3 mg/kg of body weight in 0.5 mL of vehicle fluid). The compound was first dissolved in Ethanol (EtOH) followed by the addition of propylene glycol such that a final concentration of EtOH of 8% was obtained. During this experiment, the rats were housed individually and were fasted for 8h before injection of the aminosteroid. Blood samples for determination of aminosteroid plasma concentration were collected at the jugular vein (0.4 mL by animal) at target intervals of 3, 7, 12 and 24 h (or 3 and 12 h) post-dose from six rats per time point (Tables 5, 6 and 7). After the collect at 7 h, a replacement fluid (0.9% sodium chloride injection USP) was injected in the rat. Blood samples were collected in Microvette potassium-EDTA (ethylenediamine tetra-acetic acid)-coated tubes (Sarstedt, Aktiengesellchaft & Co, Germany) and centrifuged at 3200 rpm for 10 minutes at 4° C. The plasma was collected and stored at −80° C. until analyzed by liquid chromatography/mass spectrometry/mass spectrometry (LC/MS/MS) analysis.
(§3) Aminosteroid measurement: The concentration of the aminosteroid was determined by LC/MS/MS analysis using a procedure developed at the CHUQ (CHUL)—Research Center (Québec, Qc, Canada). Briefly, for extraction from serum, 100 νL, of the serum sample was transferred to individual tubes and 600 μL of ammonium acetate (1 mM) was added. A methanolic solution (50 μL) containing a steroidal internal standard was then added to each tube. Samples were transferred on Strata-X SPE columns (Phenomenex, Torrance, Calif., USA), which have been conditioned with 2 mL of MeOH and 2 mL of water. Each column was washed with 2 mL of MeOH:water (10:90, v/v). The aminosteroid was then eluted with 5 mL of MeOH containing 5 mM ammonium acetate. The MeOH was evaporated at 45° C. under inert atmosphere and the dried residue dissolved in 100 μL of MeOH:water (85:15, v/v). […] The inhibitor was detected using an API 3000 mass spectrometer, equipped with TurbolonSpray (Applied Biosystems, Canada). ESI in positive ion mode was used.

[2] = tested on: HL-60 acute promyelocytic leukemia cells; assay: Cell proliferation assay (MTS) on HL-60 leukemia cells; format: cell-based, human;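 note: cells exposed to serially diluted compound for 3 days at 37 °C, then viable cell number read via MTS conversion to coloured formazan by metabolically active cells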
Method: (§4) All of the following cell lines were maintained under a CO2 humidified atmosphere at 37° C. The culture media were changed every 3-4 days and the cells were split once a week.
(§5) For the assay, the culture medium was the same.
(§6) The cell proliferation assay was performed using 3-(4,5-dimethylthiazol-2-yl)-5-(3-carboxymethoxyphenyl)2-(4-sulfophenyl)-2H-tetrazolium (MTS) (Cell Titer 96 Aqueous, Promega, USA). MTS is converted into water-soluble colored formazan by dehydrogenase enzymes present in metabolically active cells, which allows the measurement of the number of viable cells.
(§7) The cells were incubated at 37° C. and 5% CO2. The steroid derivatives of the present disclosure were dissolved in ethanol to prepare the 1×10^−2 M stock solutions. The stock solutions and doxorubicin (DOX) (Novapharm, Toronto, Canada) were diluted at multiple concentrations with culture media, added to each well, as indicated, and incubated for 3 days. Following each treatment, 20 μl MTS was added to each well and the mix was incubated for 4 h.

in vivo = conditions: male, Sprague-Dawley, rat, sc, 2.3 mg/kg
Method: as §1, §2, §3

[3] = tested on: normal lymphocytes from peripheral blood; assay: Cell proliferation assay (MTS) on normal lymphocytes; conditions: read-out: IC50 Lymph Norm.
[4] = tested on: Shionogi mammary carcinoma cells (AR+); assay: Cell proliferation assay (MTS) on Shionogi mammary carcinoma cells; format: cell-based; conditions: Table 3, 3 days incubation
Method: Shionogi mammary carcinoma cells bearing androgen-sensitive (AR+) were routinely grown in Eagle's Minimal Essential Medium (MEM) (Sigma, Saint Louis, USA) supplemented with 5% (v/v) fetal bovine serum (FBS), penicillin (100 IU/ml), streptomycin sulphate (50 μg/ml), 1% (v/v) non-essential amino acids and dihydrotestosterone DHT (10^−8 M). For the assay, MEM devoid of the pH indicator phenol red was supplemented with 2% (v/v) charcoal-strippes FBS and the same concentrations of antibiotics and non-essential amino acids as above.

K-562 leukemia cells = assay: Cell proliferation assay (MTS) on K-562 leukemia cells; format: cell-based; conditions: Table 3, 3 days incubation
[5] = tested on: MCF-7 breast cancer cells; assay: Cell proliferation assay (MTS) on MCF-7 breast cancer cells; format: cell-based, human; conditions: Table 3, 3 days incubation
Method: MCF-7 breast cancer cells were maintained in Dulbecco's Modified Eagle's Medium (DMEM) containing a nutriment mixture F-12 ham (DME-F12) (Sigma, Saint Louis, USA) supplemented with 5% (v/v) fetal bovine serum (FBS), L-glutamine ([…]), penicillin (100 IU/ml), streptomycin sulphate (50 μg/ml) and estradiol (1 nM). For the assay, DME-F12 was supplemented with 5% (v/v) charcoal-strippes FBS, insulin (50 ng/ml) and the same concentrations of antibiotics as above.

[6] = tested on: LNCaP prostate cancer cells; assay: Cell proliferation assay (MTS) on LNCaP prostate cancer cells; format: cell-based; conditions: Table 3, 3 days incubation
Method: as §6, §7

[7] = tested on: MDA-MB-231 (ER−) breast cancer cells; assay: Cell proliferation assay (MTS) on MDA-MB-231 (ER−) breast cancer cells; format: cell-based; conditions: Table 3, 3 days incubation
Method: as §4, §5, §6, §7

[8] = tested on: PC-3 (AR−) prostate cancer cells; assay: Cell proliferation assay (MTS) on PC-3 (AR−) prostate cancer cells; format: cell-based; conditions: Table 3, 3 days incubation
Method: as §4, §5, §6, §7

[9] = tested on: WI-38 diploid fibroblasts; assay: Cell proliferation assay (MTS) on WI-38 normal fibroblasts; format: cell-based, human; conditions: Table 3, normal cells, 3 days incubation
Method: WI-38 diploid fibroblasts derived from embryonic human lung were cultured in MEM (devoid of the pH indicator phenol red) supplemented with 10% (v/v) FBS, L-glutamine (2 nM), penicillin (100 IU/ml), streptomycin sulphate (50 μg/ml), sodium pyruvate (1 mM) and non-essential amino acids (0.1 mM).
as §6, §7

[10] = tested on: OVCAR-3 ovarian cancer cells; assay: Cell proliferation assay (MTS) on OVCAR-3 ovarian cancer cells; format: cell-based
From the text: For the assay, the culture medium was the same, but without estradiol.

[11] = Table 4, HL-60 cancer cell line, read-out: IC50
[12] = Table 6, HL-60 cancer cell line, read-out: IC50 (HL-60)
[13] = Homo sapiens, Table 4, HL-60 cancer cell line, read-out: IC50
[14] = Homo sapiens, Table 6, HL-60 cancer cell line, read-out: IC50 (HL-60)
[15] = Homo sapiens, HL-60, 72 h, Table 3, 3 days incubation, MTS, read-out: IC50 HL-60
[16] = Homo sapiens, OVCAR-3, 72 h, Table 3, 3 days incubation, MTS
[17] = Table 3, normal lymphocytes, 3 days incubation, MTS
[18] = Table 3, 3 days incubation, MTS, read-out: IC50 HL-60
[19] = Table 3, 3 days incubation, MTS

## C#C[C@]1(O)CC[C@H]2[C@@H]3CC[C@H]4C[C@H](O)[C@@H](N5CCN(C(=O)[C@@H]6CCCN6C(=O)c6ccc7ccccc7c6)CC5)C[C@]4(C)[C@H]3CC[C@@]21C [26 (AH-71), {4-[(2β,3α,5α,17α)-3,17-dihydroxypregn-20-yn-2-yl]piperazin-1-yl}[(2S)-1-(naphthalen-2-ylcarbonyl)pyrrolidin-2-yl]methanone]
[1]
  AUC (0-3 h): 278 ng·h/mL
  AUC (0-12 h): 1338 ng·h/mL
[2]; [11]
  IC50: 1900 nM
[2]; [12]
  IC50: 1900 nM

## C[C@]12C[C@H](N3CCN(C(=O)[C@@H]4CCCN4C(=O)c4ccc5ccccc5c4)CC3)[C@@H](O)C[C@@H]1CC[C@@H]1[C@@H]2CC[C@@]2(C)[C@H]1CC[C@]2(C)O [30 (AH-56), {4-[(2β,3α,17β)-3,17-dihydroxy-17-methylandrostan-2-yl]piperazin-1-yl}[(2S)-1-(naphthalen-2-ylcarbonyl)pyrrolidin-2-yl]methanone]
[1]
  AUC (0-3 h): 183 ng·h/mL
  AUC (0-12 h): 876 ng·h/mL
[2]; [11]
  IC50: 4700 nM
[2]; [12]
  IC50: 4700 nM

## C[C@]12CC[C@H]3[C@@H](CCC4C[C@H](O)[C@@H](N5CCN(C(=O)[C@@H]6CCCN6C(=O)c6cc7ccccc7cn6)CC5)C[C@@]43C)[C@@H]1CC[C@@H]2O (stereo partly drawn) [31 (AH-38), {4-[(2β,3α,17β)-3,17-dihydroxyandrostan-2-yl]piperazin-1-yl}[(2S)-1-(isoquinolin-3-ylcarbonyl)pyrrolidin-2-yl]methanone]
In vivo; AUC (0-3 h)
  AUC(0-t): 244 ng·h/mL
In vivo; AUC (0-12 h)
  AUC(0-t): 991 ng·h/mL
[2]; [13]
  IC50: 1600 nM
[2]; [14]
  IC50: 1600 nM

## C[C@]12CC[C@H]3[C@@H](CCC4C[C@H](O)[C@@H](N5CCN(C(=O)[C@@H]6CCCN6C(=O)c6ccc7ncccc7c6)CC5)C[C@@]43C)[C@@H]1CC[C@@H]2O (stereo partly drawn) [32 (AH-47), {4-[(2β,3α,17β)-3,17-dihydroxyandrostan-2-yl]piperazin-1-yl}[(2S)-1-(quinolin-6-ylcarbonyl)pyrrolidin-2-yl]methanone]
In vivo; AUC (0-3 h)
  AUC(0-t): 292 ng·h/mL
In vivo; AUC (0-12 h)
  AUC(0-t): 1170 ng·h/mL
[2]; [13]
  IC50: 4700 nM
[2]; [14]
  IC50: 4700 nM

## C[C@]12CC[C@H]3[C@@H](CCC4C[C@H](O)[C@@H](N5CCN(C(=O)[C@@H]6CCCN6C(=O)c6ccc7ccccc7n6)CC5)C[C@@]43C)[C@@H]1CC[C@@H]2O (stereo partly drawn) [33 (AH-62), {4-[(2β,3α,17β)-3,17-dihydroxyandrostan-2-yl]piperazin-1-yl}[(2S)-1-(quinolin-2-ylcarbonyl)pyrrolidin-2-yl]methanone]
In vivo; AUC (0-3 h)
  AUC(0-t): 185 ng·h/mL
In vivo; AUC (0-12 h)
  AUC(0-t): 752 ng·h/mL
[2]; [13]
  IC50: 1400 nM
[2]; [14]
  IC50: 1400 nM

## CO[C@H]1CC[C@H]2[C@@H]3CCC4C[C@H](O)[C@@H](N5CCN(C(=O)[C@@H]6CCCN6C(=O)c6ccc7ccccc7c6)CC5)C[C@]4(C)[C@H]3CC[C@]12C (stereo partly drawn) [37 (AH-55), {4-[(2β,3α,17β)-3-hydroxy-17-methoxyandrostan-2-yl]piperazin-1-yl}[(2S)-1-(naphthalen-2-ylcarbonyl)pyrrolidin-2-yl]methanone]
In vivo; AUC (0-3 h)
  AUC(0-t): 50 ng·h/mL
In vivo; AUC (0-12 h)
  AUC(0-t): 234 ng·h/mL
[2]; [13]
  IC50: 4500 nM
[2]; [14]
  IC50: 4500 nM

## C[C@]12C[C@H](N3CCN(C(=O)[C@@H]4CCCN4C(=O)c4ccc5ccccc5c4)CC3)[C@@H](OC(=O)c3ccccc3C(=O)O)C[C@@H]1CC[C@@H]1[C@@H]2CC[C@]2(C)[C@@H](OC(=O)c3ccccc3C(=O)O)CC[C@@H]12 [38 (AH-75), 2,2′-{[(2β,3α,5α,17β)-2-{4-[1-(naphthalen-2-ylcarbonyl)-L-prolyl]piperazin-1-yl}androstane-3,17-diyl]bis(oxycarbonyl)}dibenzoic acid]
In vivo; AUC (0-3 h)
  AUC(0-t): 38 ng·h/mL
In vivo; AUC (0-12 h)
  AUC(0-t): 72 ng·h/mL
[2]; [13]
  IC50: > 10000 nM
[2]; [14]
  IC50: > 10000 nM

## C[C@]12CC[C@H]3[C@@H](CCC4C[C@H](OS(N)(=O)=O)[C@@H](N5CCN(C(=O)[C@@H]6CCCN6C(=O)c6ccc7ccccc7c6)CC5)C[C@@]43C)[C@@H]1CC[C@@H]2OS(N)(=O)=O (stereo partly drawn) [39 (AH-70), (2β,3α,17β)-2-{4-[1-(naphthalen-2-ylcarbonyl)-L-prolyl]piperazin-1-yl}androstane-3,17-diyl disulfamate]
In vivo; AUC (0-3 h)
  AUC(0-t): 11 ng·h/mL
In vivo; AUC (0-12 h)
  AUC(0-t): 67 ng·h/mL
[2]; [13]
  IC50: 5000 nM
[2]; [14]
  IC50: 5000 nM

## COc1cccc2c1C(=O)c1c(O)c3c(c(O)c1C2=O)C[C@@](O)(C(=O)CO)C[C@@H]3O[C@H]1C[C@H](N)[C@H](O)[C@H](C)O1 [Doxorubicin, reference compound]
[3]; Lymphocyte, 72 h
  IC50: 160 nM
[4]; 72 h
  IC50: 1300 nM
K-562 leukemia cells; Homo sapiens, K562, 72 h
  IC50: 400 nM
[5]; Homo sapiens, MCF7, 72 h
  IC50: > 10000 nM
[6]; Homo sapiens, LNCaP, 72 h
  IC50: 100 nM
[7]; Homo sapiens, MDA-MB-231, 72 h
  IC50: 900 nM
[8]; PC3/AR, 72 h
  IC50: 900 nM
[2]; [15]
  IC50: 80 nM
[9]; Homo sapiens, WI-38, 72 h
  IC50: 3000 nM
[10]; Homo sapiens, OVCAR-3
  IC50: 900 nM
[10]; [16]
  IC50: 900 nM

## CC[C@]1(O)CC[C@H]2[C@@H]3CC[C@H]4C[C@H](O)[C@@H](N5CCN(C(=O)[C@@H]6CCCN6C(=O)c6cccc7ccccc67)CC5)C[C@]4(C)[C@H]3CC[C@@]21C [LPC-37]
[1]
  AUC (7 h): 372 ng·h/mL
  AUC (24 h): 681 ng·h/mL
  AUC(12 h): 525 ng·h/mL

## C[C@]12C[C@H](N3CCN(C(=O)[C@@H]4CCCN4C(=O)c4ccc(C#N)cc4)CC3)[C@@H](O)C[C@@H]1CC[C@@H]1[C@@H]2CC[C@]2(C)[C@@H](O)CC[C@@H]12 [PC-41, 4-{[(2S)-2-({4-[(2β,3α,5α,17β)-3,17-dihydroxyandrostan-2-yl]piperazin-1-yl}carbonyl)pyrrolidin-1-yl]carbonyl}benzonitrile]
[3]; Lymphocyte, 72 h
  IC50: 19300 nM
[4]; 72 h
  IC50: 200 nM
K-562 leukemia cells; Homo sapiens, K562, 72 h
  IC50: > 10000 nM
[5]; Homo sapiens, MCF7, 72 h
  IC50: 400 nM
[6]; Homo sapiens, LNCaP, 72 h
  IC50: 1000 nM
[7]; Homo sapiens, MDA-MB-231, 72 h
  IC50: > 10000 nM
[8]; PC3/AR, 72 h
  IC50: 6500 nM
[2]; [15]
  IC50: 3100 nM
[9]; Homo sapiens, WI-38, 72 h
  IC50: > 10000 nM
[10]; [16]
  IC50: 800 nM

## C[C@]12C[C@H](N3CCN(C(=O)[C@@H]4CCCN4C(=O)/C=C/c4ccccc4)CC3)[C@@H](O)C[C@@H]1CC[C@@H]1[C@@H]2CC[C@]2(C)[C@@H](O)CC[C@@H]12 [PC-42]
[3]; [17]
  IC50: 7900 nM
[4]
  IC50: 200 nM
K-562 leukemia cells
  IC50: 9300 nM
[5]
  IC50: 400 nM
[1]
  AUC (7 h): 641 ng·h/mL
  AUC (24 h): 767 ng·h/mL
  AUC(12 h): 751 ng·h/mL
[6]
  IC50: 500 nM
[7]
  IC50: > 10000 nM
[8]
  IC50: 4000 nM
[2]; [18]
  IC50: 1500 nM
[9]
  IC50: > 10000 nM
[10]; [19]
  IC50: 800 nM

## C=C(C)[C@H]1CC=C(C(=O)N2CCC[C@H]2C(=O)N2CCN([C@H]3C[C@@]4(C)[C@@H](CC[C@@H]5[C@@H]4CC[C@]4(C)[C@@H](O)CC[C@@H]54)C[C@@H]3O)CC2)CC1 [PC-46]
[3]; [17]
  IC50: 9300 nM
[4]
  IC50: 200 nM
K-562 leukemia cells
  IC50: 14100 nM
[5]
  IC50: 700 nM
[1]
  AUC (7 h): 771 ng·h/mL
  AUC (24 h): 830 ng·h/mL
  AUC(12 h): 830 ng·h/mL
[6]
  IC50: 900 nM
[7]
  IC50: > 10000 nM
[8]
  IC50: 4000 nM
[2]; [18]
  IC50: 1900 nM
[9]
  IC50: > 10000 nM
[10]; [19]
  IC50: 1300 nM
